Laboratory results taken from US20040127467A1, “Synthesis of pancratistatin prodrugs” (priority 2003, published 2004).

Experiments:
[1] = test system: U.S. National Cancer Institute (NCI) panel of cancer cell lines; details: cited from earlier work
RNA viruses = details: cited from earlier work
[2] = test system: minipanel of human cancer cell lines; test: minipanel of human cancer cell lines growth inhibition; type: cell-based; details: murine P388 and minipanel of human cancer cell lines (Table I)
Procedure: All of the synthetic products were evaluated against the murine P388 lymphocytic leukemia cell line and a minipanel of human cancer cell lines.

[3] = test system: murine P388 lymphocytic leukemia cell line; details: compared with pancratistatin (1a); cited from earlier work
[4] = compared with pancratistatin (1a); cited from earlier work

O=C1N[C@H]2[C@H](O)[C@H](O)[C@@H](O)[C@H](O)[C@@H]2c2cc3c(c(O)c21)OCO3 [1a, (+)-pancratistatin]
in vitro cancer cell growth inhibitory activities (in words) [1]: strong | activity against a range of RNA viruses (in words) (RNA viruses): activity against a range of RNA viruses

O=C1N[C@H]2[C@H](O)[C@H](O)[C@@H](O)[C@H](O)[C@@H]2c2cc3c(c(OP(=O)([O-])[O-])c21)OCO3.[Na+].[Na+] [2a, Disodium 7-O-phosphoryl-pancratistatin]
cancer cell line activity (in words) [2]: high activity | activity against the murine P388 lymphocytic leukemia cell (in words) [3]: equal activity | solubility characteristics in water (in words) [4]: greatly improved solubility characteristics in water

C1COCCN1.O=C1NC2C(O)C(O)C(O)C(O)C2c2cc3c(c(OP(=O)(O)O)c21)OCO3 (stereo not drawn) [2k, Morpholine pancratistatin 7-O-phosphate]
water solubility (in words): poor water solubility
